Results as given in patent publication US9006188B2, “Co-crystals of dapagliflozin” (Mapi Pharma Ltd., priority 2013, dated 2015).

Experiment: Hygroscopicity by Dynamic Vapor Sorption (DVS), sorption/desorption profile
Format: physicochemical
Experimental: The preparation of lactose co-crystal and asparagine co-crystal were scaled up and repeated (about 400 mg of dapagliflozin free form was dissolved in 26 ml of IPA) and XRPD, PLM, TGA, DSC, NMR and DVS analyses were conducted for physicochemical properties evaluation. Before physicochemical properties evaluation, the solids precipitated out were isolated and dried off at 40° C. for 4 hours in vacuum drier. After hygroscopicity test, the sample was retested by XRPD to determine if any form transformation during the DVS test.
The sorption/desorption profiles of dapagliflozin Form I were tested at 25° C. under 0-95% relative humidity. […] This sample was tested by XRPD.

[1] = DVS 25° C., cycle 1, target 0.0 % P/Po
[2] = DVS 25° C., cycle 1, target 5.0 % P/Po
[3] = DVS 25° C., cycle 1, target 10.0 % P/Po
[4] = DVS 25° C., cycle 1, target 15.0 % P/Po
[5] = DVS 25° C., cycle 1, target 20.0 % P/Po
[6] = DVS 25° C., cycle 1, target 25.0 % P/Po
[7] = DVS 25° C., cycle 1, target 30.0 % P/Po
[8] = DVS 25° C., cycle 1, target 35.0 % P/Po
[9] = DVS 25° C., cycle 1, target 40.0 % P/Po
[10] = DVS 25° C., cycle 1, target 45.0 % P/Po
[11] = DVS 25° C., cycle 1, target 50.0 % P/Po
[12] = DVS 25° C., cycle 1, target 55.0 % P/Po
[13] = DVS 25° C., cycle 1, target 60.0 % P/Po
[14] = DVS 25° C., cycle 1, target 65.0 % P/Po
[15] = DVS 25° C., cycle 1, target 70.0 % P/Po
[16] = DVS 25° C., cycle 1, target 75.0 % P/Po
[17] = DVS 25° C., cycle 1, target 80.0 % P/Po
[18] = DVS 25° C., cycle 1, target 85.0 % P/Po
[19] = DVS 25° C., cycle 1, target 90.0 % P/Po
[20] = DVS 25° C., cycle 1, target 95.0 % P/Po

## CCOc1ccc(Cc2cc(C3OC(CO)C(O)C(O)C3O)ccc2Cl)cc1.OCC1OC(OC2C(CO)OC(O)C(O)C2O)C(O)C(O)C1O (stereo not drawn) [lactose co-crystal]
DVS 25° C., 0 to 95% RH
  weight gain from 0 to 95% RH: 2.16%
[1]
  Change In Mass (%) - ref, Desorption: 0.077%
  Change In Mass (%) - ref, Sorption: 0.000%
[2]
  Change In Mass (%) - ref, Desorption: 0.104%
  Change In Mass (%) - ref, Hysteresis: 0.083%
  Change In Mass (%) - ref, Sorption: 0.021%
[3]
  Change In Mass (%) - ref, Desorption: 0.120%
  Change In Mass (%) - ref, Hysteresis: 0.078%
  Change In Mass (%) - ref, Sorption: 0.042%
[4]
  Change In Mass (%) - ref, Desorption: 0.136%
  Change In Mass (%) - ref, Hysteresis: 0.073%
  Change In Mass (%) - ref, Sorption: 0.064%
[5]
  Change In Mass (%) - ref, Desorption: 0.151%
  Change In Mass (%) - ref, Hysteresis: 0.066%
  Change In Mass (%) - ref, Sorption: 0.085%
[6]
  Change In Mass (%) - ref, Desorption: 0.170%
  Change In Mass (%) - ref, Hysteresis: 0.063%
  Change In Mass (%) - ref, Sorption: 0.107%
[7]
  Change In Mass (%) - ref, Desorption: 0.188%
  Change In Mass (%) - ref, Hysteresis: 0.058%
  Change In Mass (%) - ref, Sorption: 0.131%
[8]
  Change In Mass (%) - ref, Desorption: 0.213%
  Change In Mass (%) - ref, Hysteresis: 0.053%
  Change In Mass (%) - ref, Sorption: 0.160%
[9]
  Change In Mass (%) - ref, Desorption: 0.238%
  Change In Mass (%) - ref, Hysteresis: 0.036%
  Change In Mass (%) - ref, Sorption: 0.201%
[10]
  Change In Mass (%) - ref, Desorption: 0.266%
  Change In Mass (%) - ref, Hysteresis: 0.022%
  Change In Mass (%) - ref, Sorption: 0.244%
[11]
  Change In Mass (%) - ref, Desorption: 0.296%
  Change In Mass (%) - ref, Hysteresis: 0.013%
  Change In Mass (%) - ref, Sorption: 0.283%
[12]
  Change In Mass (%) - ref, Desorption: 0.330%
  Change In Mass (%) - ref, Hysteresis: 0.007%
  Change In Mass (%) - ref, Sorption: 0.323%
[13]
  Change In Mass (%) - ref, Desorption: 0.366%
  Change In Mass (%) - ref, Hysteresis: 0.003%
  Change In Mass (%) - ref, Sorption: 0.363%
[14]
  Change In Mass (%) - ref, Desorption: 0.410%
  Change In Mass (%) - ref, Hysteresis: 0.000%
  Change In Mass (%) - ref, Sorption: 0.409%
[15]
  Change In Mass (%) - ref, Desorption: 0.465%
  Change In Mass (%) - ref, Hysteresis: 0.000%
  Change In Mass (%) - ref, Sorption: 0.466%
[16]
  Change In Mass (%) - ref, Desorption: 0.531%
  Change In Mass (%) - ref, Hysteresis: −0.004%
  Change In Mass (%) - ref, Sorption: 0.534%
[17]
  Change In Mass (%) - ref, Desorption: 0.618%
  Change In Mass (%) - ref, Hysteresis: −0.004%
  Change In Mass (%) - ref, Sorption: 0.622%
[18]
  Change In Mass (%) - ref, Desorption: 0.768%
  Change In Mass (%) - ref, Hysteresis: 0.005%
  Change In Mass (%) - ref, Sorption: 0.762%
[19]
  Change In Mass (%) - ref, Desorption: 1.081%
  Change In Mass (%) - ref, Hysteresis: 0.069%
  Change In Mass (%) - ref, Sorption: 1.012%
[20]
  Change In Mass (%) - ref, Desorption: 2.162%
  Change In Mass (%) - ref, Sorption: 2.162%
Based on DVS weight gain from 0 to 95% RH
  hygroscopicity classification: hygroscopic
